Where two headings read alike, the source gives them in different places. Where only a bound is given, the exact number is not on record here.

Data set [1] in a line: bioavailability indices in infected mice, one-compartment oral model. Details: species or system I.C.R. mouse. As to conditions: in vivo; for AUC / p.o./s.c. / Cmax / Tmax / half-life: 40 mg/kg; for pharmacokinetics values and p.o. absorption versus controls (in words) / Cmax / Tmax / half-life: po. As for the experimental part:
The in vivo antibacterial activities and pharmacological activities of the β-methylcarbapenem compounds of the present invention were tested as follows. Specifically, 4 to 5 week-old I.C.R. mouse, each weighing 22 to 25 g and infected with Streptococcus pyogenes 77A, were administered per os with the solutions of the compounds of Examples 5 and 9 dissolved in 10% DMSO, at a dosage of 40 mg/kg body weight. The bioavailability indices, e.g., Cmax, Tmax, t1/2, AUC and p.o./s.c. were determined in accordance with one-compartment oral model method(Drug Metabolism Reviews, 17, 331-348(1986)). The one-compartment oral model was prepared by curve fitting using Gauss-Newto method and calculation using PKCALC computer program.

A further data set has as its system S. pyogenes 308A. The data set can be described thus: agar plate dilution method, MIC. The format is cell-based, Streptococcus pyogenes. As to conditions: about 10^7 CFU/ml, 37° C., 18 hours. As for the experimental part:
(§1) The antibacterial activities of the β-methylcarbapenem compounds of the present invention prepared in the above Examples were determined in accordance with the agar plate dilution method(Hoechst 345). Specifically,about 10^7 CFU/ml of test bacteria(Hoechst standard strains) was inoculated to a Muller-Hinton agar medium containing serial double dilutions of the test compounds, i.e., compounds prepared in Examples 1 to 3, and incubated at 37° C. for 18 hours. Tribactam(EP 416953) and SUN-5555(Santory Co., Japan) were employed as control materials for carbapenem and penem, respectively. When the incubation was completed, the minimum inhibitory concentration of each test compounds was determined.

The next data set has as its system S. pyogenes 77A. The experiment in a line: agar plate dilution method, MIC. The format is cell-based, Streptococcus pyogenes. To be noted: about 10^7 CFU/ml, 37° C., 18 hours. As for the experimental part: as §1
The next data set relates to S. faecium MD 8b. The experiment in a line: agar plate dilution method, MIC. As to conditions: about 10^7 CFU/ml, 37° C., 18 hours. The format is cell-based, Streptococcus faecium. As for the experimental part: as §1
The test system of a further data set is E. coli 078. The experiment in a line: agar plate dilution method, MIC. The format is cell-based. To be noted: about 10^7 CFU/ml, 37° C., 18 hours. The protocol: as §1
A further data set deals with E. coli 1507 E. The experiment in a line: agar plate dilution method, MIC. The format is cell-based. As to conditions: about 10^7 CFU/ml, 37° C., 18 hours. As for the experimental part: as §1
The next data set relates to E. coli TEM. The data set can be described thus: agar plate dilution method, MIC. The format is cell-based. To be noted: about 10^7 CFU/ml, 37° C., 18 hours. The protocol:
as §1

A further data set concerns K. oxytoca 1082 E. The experiment in a line: agar plate dilution method, MIC. As to conditions: about 10^7 CFU/ml, 37° C., 18 hours. The format is cell-based. The protocol:
as §1

In another data set the test system is S. aureus 285. The experiment in a line: agar plate dilution method, MIC. The format is cell-based. As to conditions: about 10^7 CFU/ml, 37° C., 18 hours. As for the experimental part: as §1
The next data set concerns S. aureus 503. The experiment in a line: agar plate dilution method, MIC. The format is cell-based. To be noted: about 10^7 CFU/ml, 37° C., 18 hours. The protocol: as §1
The next data set has as its system S. aureus SG 511. The data set can be described thus: agar plate dilution method, MIC. The format is cell-based. To be noted: about 10^7 CFU/ml, 37° C., 18 hours. The protocol: as §1
A further data set concerns S. typhimurium. The data set can be described thus: agar plate dilution method, MIC. The format is cell-based. As to conditions: about 10^7 CFU/ml, 37° C., 18 hours. As for the experimental part: as §1
The test system of a further data set is P. aeruginosa 1592 E. The experiment in a line: agar plate dilution method, MIC. To be noted: about 10^7 CFU/ml, 37° C., 18 hours. The format is cell-based, Pseudomonas aeruginosa. The protocol: as §1
Another data set relates to P. aeruginosa 1771 M. The data set can be described thus: agar plate dilution method, MIC. The format is cell-based, Pseudomonas aeruginosa. To be noted: about 10^7 CFU/ml, 37° C., 18 hours. As for the experimental part: as §1
A further data set deals with P. aeruginosa 1771. The experiment in a line: agar plate dilution method, MIC. The format is cell-based, Pseudomonas aeruginosa. As to conditions: about 10^7 CFU/ml, 37° C., 18 hours. The protocol:
as §1

A further data set has as its system P. aeruginosa 9027. The data set can be described thus: agar plate dilution method, MIC. The format is cell-based, Pseudomonas aeruginosa. As to conditions: about 10^7 CFU/ml, 37° C., 18 hours. As for the experimental part:
as §1

In the next data set the test system is K. aerogenes 1522 E. The experiment in a line: agar plate dilution method, MIC. The format is cell-based, Klebsiella aerogenes. As to conditions: about 10^7 CFU/ml, 37° C., 18 hours. As for the experimental part:
as §1

The next data set concerns E. cloacae 1321 E. The experiment in a line: agar plate dilution method, MIC. The format is cell-based, Enterobacter cloacae. To be noted: about 10^7 CFU/ml, 37° C., 18 hours. As for the experimental part: as §1
Another data set concerns E. cloacae P 99. The data set can be described thus: agar plate dilution method, MIC. The format is cell-based, Enterobacter cloacae. As to conditions: about 10^7 CFU/ml, 37° C., 18 hours. The protocol: as §1
The next data set relates to E. coli DC 0. The experiment in a line: agar plate dilution method, MIC. The format is cell-based. To be noted: about 10^7 CFU/ml, 37° C., 18 hours. The protocol:
as §1

A word on the Cmax: it is the highest concentration seen after dosing. Usually Tmax stands for the time at which the peak concentration occurs. A word on the half-life: it is the time in which the quantity being followed falls by half. Read a high half-life as slow loss. For `CC(C)OC(=O)OC(C)OC(=O)C1=C([C@H](O)C(C)C)[C@H](C)[C@@H]2[C@@H]([C@@H](C)O)C(=O)N12` (stereo partly drawn) [Example 9, isopropyloxycarbonyloxy-1-ethyl (1S, 5R, 6S)-2-[(1R)-1-hydroxy-2-methylpropyl]-6-[(1R)-1-hydroxyethyl]-1-methyl-2-carbapenem-3-carboxylate], in [1] (mouse), the AUC is 6.78; the p.o./s.c. is 32.42%; the “pharmacokinetics values and p.o. absorption versus controls (in words)” value was “superior pharmacokinetics values and p.o. absorption over the controls”; the highest level (Cmax) was 10400 ng/mL. Besides, in data set [1] (mouse), the time of peak concentration (Tmax) was 19.8 min and the half-life is 19.8 min.
Take `C[C@@H](O)[C@H]1C(=O)N2C(C(=O)O)=C([C@H](O)C3CCCC3)[C@H](C)[C@H]12` [Example 3, potassium (1S, 5R, 6S)-2-[(R)-(cyclopentyl)hydroxymethyl]-6-[(1R)-1-hydroxyethyl]-1-methyl-2-carbapenem-3-carboxylate]: the minimum inhibitory concentration in the data set on S. pyogenes 308A is reported as 0.004; in the data set with S. pyogenes 77A it was 0.007; in the data set with S. faecium MD 8b it was 0.781; in the data set with E. coli 078 it was 0.195; in the data set with E. coli 1507 E, 0.098; with E. coli TEM, 0.391. Moreover, the minimum inhibitory concentration in the data set on K. oxytoca 1082 E is 1.563; with S. aureus 285, 0.098; in the data set on S. aureus 503, 0.098; in the data set with S. aureus SG 511, 0.098; with S. typhimurium it was 0.098; in the data set on P. aeruginosa 1592 E, above 100.0. Moreover, the minimum inhibitory concentration in the data set with P. aeruginosa 1771 M is 1.563; with P. aeruginosa 1771, above 100.0; in the data set with P. aeruginosa 9027, above 100.0; with K. aerogenes 1522 E, 0.781; in the data set on E. cloacae 1321 E, 0.391; in the data set with E. cloacae P 99, 6.250.
Regarding `CC(C)[C@@H](O)C1=C(C(=O)O)N2C(=O)[C@H]([C@@H](C)O)[C@H]2[C@H]1C` [Example 1, potassium (1S, 5R, 6S)-2-[(1R)-1-hydroxy-2-methylpropyl]-6-[(1R)-1-hydroxyethyl]-1-methyl-2-carbapenem-3-carboxylate], the minimum inhibitory concentration in the data set on S. pyogenes 308A came to 0.013; in the data set on S. pyogenes 77A, 0.013; with S. faecium MD 8b, 3.125; in the data set with E. coli 078, 0.049; in the data set with E. coli 1507 E it was 0.049; in the data set with E. coli DC 0 it was 0.195. For the same compound, the minimum inhibitory concentration in the data set on E. coli TEM stood at 0.195; in the data set on K. oxytoca 1082 E, 1.563; in the data set on S. aureus 285, 0.098; with S. aureus 503 it was 0.098; with S. aureus SG 511, 0.098; in the data set with S. typhimurium, 0.098. Besides, the minimum inhibitory concentration is above 100 in the data set with P. aeruginosa 1592 E; 0.781 in the data set with P. aeruginosa 1771 M; 100 in the data set with P. aeruginosa 1771; above 100 with P. aeruginosa 9027; 0.391 in the data set on K. aerogenes 1522 E; 0.098 in the data set with E. cloacae 1321 E.
With `C[C@@H](O)[C@H]1C(=O)N2C(C(=O)O)=C([C@H](O)C3CC3)[C@H](C)[C@H]12` [Example 2, potassium (1S, 5R, 6S)-2-[(R)-(cyclopropyl) hydroxymethyl]-6-[(1R)-1-hydroxyethyl]-1-methyl-2-carbapenem-3-carboxylate], the minimum inhibitory concentration in the data set with S. pyogenes 308A is given as 0.007; in the data set on S. pyogenes 77A, 0.007; in the data set with S. faecium MD 8b it was 0.781; with E. coli 078, 0.098; in the data set with E. coli 1507 E, 0.049; in the data set on E. coli DC 0 it was 0.098. The minimum inhibitory concentration in the data set on E. coli TEM came out at 0.098; with K. oxytoca 1082 E, 0.781; with S. aureus 285 it was 0.049; in the data set on S. aureus 503 it was 0.049; in the data set with S. aureus SG 511, 0.049; in the data set on S. typhimurium, 0.098. Further, the minimum inhibitory concentration in the data set on P. aeruginosa 1592 E was found to be 100.0; with P. aeruginosa 1771 M, 1.563; in the data set on P. aeruginosa 1771, 100.0; in the data set on P. aeruginosa 9027, 100.0; in the data set with K. aerogenes 1522 E it was 0.195; with E. cloacae 1321 E, 0.098.
Regarding `Cc1oc(=O)oc1COC(=O)C1=C([C@H](O)C(C)C)[C@H](C)[C@@H]2[C@@H]([C@@H](C)O)C(=O)N12` [Example 5, (5-methyl-2-oxo-1,3-dioxolen-4-yl)methyl (1S, 5R, 6S)-2-[(1R)-1-hydroxy-2-methylpropyl]-6-[(1R)-1-hydroxyethyl]-1-methyl-2-carbapenem-3-carboxylate], in data set [1] (mouse), the AUC amounted to 3.80; the p.o./s.c. was 32.50%; the “pharmacokinetics values and p.o. absorption versus controls (in words)” value was “superior pharmacokinetics values and p.o. absorption over the controls”; the Cmax turned out to be 8770 ng/mL. Besides, in [1] (mouse), the time of peak concentration (Tmax) was found to be 10.2 min and the half-life was 16.2 min.
As to `C[C@@H](O)[C@H]1C(=O)N2C(C(=O)O)=C([C@H]3CCCO3)S[C@H]12` [SUN-5555, reference compound], the minimum inhibitory concentration in the data set on S. pyogenes 308A was 0.013; in the data set on S. pyogenes 77A, 0.007; in the data set with S. faecium MD 8b, 6.250; in the data set with E. coli 078, 0.195; in the data set with E. coli 1507 E, 0.195; in the data set with E. coli DC 0, 0.781. In addition, the minimum inhibitory concentration with E. coli TEM is 0.391; in the data set with K. oxytoca 1082 E it was 0.391; in the data set on S. aureus 285 it was 0.098; in the data set on S. aureus 503 it was 0.098; in the data set on S. aureus SG 511, 0.098; in the data set on S. typhimurium, 0.195. Also, the minimum inhibitory concentration with P. aeruginosa 1592 E was above 100.0; in the data set on P. aeruginosa 1771 M, 3.125; in the data set with P. aeruginosa 1771, above 100.0; in the data set on P. aeruginosa 9027, above 100.0; in the data set on K. aerogenes 1522 E, 0.391; with E. cloacae 1321 E, 0.391. In the data set on E. cloacae P 99, this compound gave a minimum inhibitory concentration of 1.563. Besides, the peak concentration (Cmax) in [1] (I.C.R. mouse infected with S. pyogenes 77A, per os, 10% DMSO, read-out: Cmax) is 2640 ng/mL. In addition, the Tmax in data set [1] (I.C.R. mouse infected with S. pyogenes 77A, per os, 10% DMSO, read-out: Tmax) is 25.2 min. In data set [1] (mouse), this compound showed a p.o./s.c. of 22.71%. Moreover, the half-life in [1] (mouse) was 22.8 min.

These data come from patent US5869477A, “β-methylcarbapenem derivatives, process for the preparation thereof and pharmaceutical composition comprising same” (priority 1995, dated 1999).
